Experimental data: US9447466B2 (NIPPON ZOKI PHARMACEUTICAL CO., LTD., priority 2010, dated 2016)

Tests used:
[1] = system: BDNF; assay: Pharmacological Test 8: influence on TrkB inhibition (BDNF expression, semi-quantitative RT-PCR); assay type: cell-based, human; conditions: SH-SY5Y cells; test substance 10 mNU/mL 24 hours; K252a 500 nM or αTrkB 20 μg/mL added 30 minutes before completion; FIG. 9
Description: K252a (tyrosine kinase inhibitor, 500 nM) or rabbit IgG of human TrkB-specific antibody (αTrkB, 20 μg/mL) was added to the cultured product 30 minutes before completion of the cultivation. After that, the same as in the above Pharmacological Test 1, the extracted total RNA was subjected to a semi-quantitative RT-PCR, the PCR product was separated by agarose electrophoresis and the bands of BDNF and cyclophilin A were visually detected.

[2] = system: BDNF; assay: Pharmacological Test 6: influence of intracellular signaling inhibitors on BDNF expression; assay type: cell-based, human; conditions: SH-SY5Y cells; test substance 10 mNU/mL 24 hours; PD98059 10 μM, LY 294002 15 μM or SB 203580 0.5 μM added 30 minutes before completion; FIG. 7
Description: PD98059 (MEK inhibitor, 10 μM), LY 294002 (PI-3K inhibitor, 15 μM) or SB 203580 (p38 MAPK inhibitor, 0.5 μM) dissolved in a medium was added to a cultured product 30 minutes before completion of the cultivation. After that, the same as in the above Pharmacological Test 1, the extracted total RNA was subjected to a semi-quantitative RT-PCT, the PCR product was separated by agarose gel electrophoresis and the bands of BDNF and cyclophilin were visually detected.

[3] = system: ERK1/2; assay: Inhibition of phosphorylation of ERK1/2 by MEK1/2 inhibitor; assay type: cell-based
[4] = system: CREB; assay: Inhibition of phosphorylation of CREB by p38MAPK inhibitor; assay type: cell-based
[5] = system: CREB; assay: Pharmacological Test 5: effect to CREB pathway (immuno-blotting), phosphorylated CREB; assay type: cell-based; conditions: SH-SY5Y cells; BDNF given from outside of the cells (human recombinant BDNF 50 pg/mL; 10 or 30 minutes)
Text: (§1) Intracellular signaling molecules were detected by an immuno-blotting method using each of various specific antibodies produced to CREB (MAB 5432; Millipore), phosphorylated CREB (P-CREB: Clone 10E9; Millipore), P42/44 MAP kinase (ERK1/2; Cell Signaling Technology), phosphorylated P42/44 MAP kinase (P-MAPK: Tyr202/Tyr204; Cell Signaling Technology) and c-Fos (Gene Tex). […] After that, the cells were scraped off using a cell scraper (BD Bioscience), immediately washed with ice-cooled PBS and subjected to cytolysis according to a method of Mutoh, et al. (Proceedings of the National Academy of Sciences of the United States of America, vol. 92, pages 5087 to 5091, 1995). The cytolyzed product was subjected to an SDS-PAGE electrophoresis of 4 to 20% gel (ePAGEL; Atto Chemicals) and blotted to a PDVF (polyvinylidene fluoride) membrane. After said membrane was subjected to a blocking for 1 hour using Tris buffer physiological saline (TBS; 20 mM Tris-HCl, pH 7.5, 0.15M NaCl) containing 3% fat-free milk and 0.1% Tween 20 (TBS-T), a reaction with the primary antibody and the HRP-labeled secondary antibody was conducted in TBS-T for one hour at room temperature. Immuno-reactive bands of CREB, phosphorylated CREB, P42/44 MAP kinase, phosphorylated P42/44 MAP kinase and c-Fos were visually detected by a detection system by means of […] (ECL; GE Healthcare).

[6] = system: p42/44MAP kinase (ERK1/2); assay: Pharmacological Test 5: effect to CREB pathway (immuno-blotting), phosphorylated P42/44 MAP kinase; assay type: cell-based; conditions: SH-SY5Y cells; BDNF given from outside of the cells (human recombinant BDNF 50 pg/mL; 10 or 30 minutes)
Text: as §1

## COC(=O)[C@@]1(O)C[C@H]2O[C@]1(C)n1c3ccccc3c3c4c(c5c6ccccc6n2c5c31)C(=O)NC4 [Example K252a]
[1]
  BDNF expression enhanced by the test substance in presence of inhibitor or antibody: almost completely suppressed

## COc1cccc(-c2cc(=O)c3ccccc3o2)c1N [PD98059]
[2]
  enhancement of BDNF expression by the test substance in presence of inhibitor: suppressed
[3]
  phosphorylation of ERK1/2: inhibited

## C[S+]([O-])c1ccc(-c2nc(-c3ccncc3)c(-c3ccc(F)cc3)[nH]2)cc1 (stereo not shown) [SB203580]
[4]
  phosphorylation of CREB: inhibited
[2]
  enhancement of BDNF expression by the test substance in presence of inhibitor: suppressed

B1: BDNF: human recombinant BDNF (Peprotech) given from outside of the cells (protein, UniProt P23560 19-247, looked up)
Neurotrophic factor BDNF …: APMKEANIRGQGGLAYPGVRTHGTLESVNGPKAGSRGLTSLADTFEHVIEELLDEDQKVRPNEENNKDADLYTSRVMLSSQVPLEPPLLFLLEEYKNYLDAANMSMRVRRHSDPARRGELSVCDSISEWVTAADKKTAVDMSGGTVTVLEKVPVSKGQLKQYFYETKCNPMGYTKEGCRGIDKRHWNSQCRTTQSYVRALTMDSKKRIGWRFIRIDTSCVCTLTIKRGR
[5]
  phosphorylation of CREB: enhanced
[6]
  phosphorylation of 42/44MAP kinase: enhanced
